Reference: PubChem BioAssay AID2202554 (NIEHS Division of Translational Toxicology (DTT))
Results filed as inconclusive are left out. Activity calls are given as the source filed them. How the calls were made is not given here.

These molecules were tested on S. typhimurium/E. coli reverse mutation, colony counts (assay: Bacterial reverse mutation test (aka Ames test) summary data;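 further: His-minus Salmonella and trp-minus E. coli WP2 uvrA pKM101 with or without liver S9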).
Excerpt: The Ames test uses bacteria cultures to determine whether a substance causes mutations. Because there is a significant overlap between substances that are mutagens and those that are carcinogens, a quick and inexpensive mutagenicity test is useful as an initial screening for possible carcinogens.
The Ames test relies on specific strains of S. typhimurium, namely: TA97, TA98, TA100, TA102, TA104, TA1535, TA1537, and TA1538. In addition to the S. typhimurium strains, the test may also use the E. coli strain WP2 uvrA pKM101.
Each of the bacterial strains has a mutation that prevents it from making an amino acid (a protein building block) required for normal cell growth. The S. typhimurium strains are unable to manufacture histidine; the E. coli strain cannot manufacture tryptophan. The tester strains will not be able to grow without amino acid supplementation, unless the mutated gene is changed back to the correct DNA sequence (reversion mutation). Being exposed to a mutagenic chemical increases the chance that the mutant gene will be restored to the correct sequence, which allows the bacteria to grow and form colonies. Each substance under study is tested in a variety of bacterial strains with different types of altered DNA sequences in order to provide a comprehensive assessment of the mutagenic potential of the substance.
Some non-mutagenic substances are converted to mutagenic substances when metabolized by the liver; in contrast, some substances that are mutagenic in their natural state are converted to non-mutagens by the liver. All substances are tested in their natural state, as well as in the presence of liver enzymes that can produce this metabolic conversion of the test substance. Extracts of rat, hamster, or mouse liver enzymes (S9 mix) are used for this purpose.
D. Preparing the Cultures
Multiple sets of cultures are prepared using a range of doses and different amounts of liver enzymes for each bacterial strain. Each culture is prepared in a test tube containing a suspension of one bacterial strain and either an S9 mix or plain buffer solution. Then the test substance is added. Negative control cultures are established using the same ingredients, but without the test substance. Positive control cultures are established using known mutagens active in particular bacterial strains and metabolic conditions (for example, with or without S9). Once prepared, each culture is incubated for 20 minutes at 37° C. Agar is then added to the cultures, and the contents of each tube are poured onto the surface of a Petri dish that was prepared with standard bacterial culture medium. The plates are then incubated, usually for two days.
Depending on the substance to be tested, the exposure and incubation processes may be modified. These variations include:
- Elimination of the 20-minute incubation period in a test tube prior to plating (this method is referred to as the standard plate incorporation method)
- Enzymatic reduction of azo and diazo substances (this process occurs in the intestine or liver of animals) using a chemical called flavin mononucleotide (FMN) or intestinal bacterial preparations from rats
- Testing in sealed chambers such as desiccators for volatile and gaseous chemicals.
To validate the test, a trained investigator compares the number of colonies on the chemical-treated plates to the number of colonies on the negative control plates. If the substance under test is mutagenic, the chemical-treated plates will have a much greater number of colonies than the negative control plates.
- A positive response is a reproducible, dose-related increase in mutant colonies in any single strain, with or without the addition of S9 metabolic enzymes. While there is no minimum percentage of increase required for a result to be considered positive, a twofold increase in mutant colonies in a treated plate is usually considered to be a positive (mutagenic) response.
[…]
For `Oc1ccccc1Cl`, the outcome was “inactive; negative”.
With `CC1CC(OC(=O)c2ccccc2O)CC(C)(C)C1` (stereo not given) the outcome was “inactive; negative”.
In the case of `Clc1c(Cl)c(Cl)c2ccccc2c1Cl`, the outcome is reported as “inactive; negative”.
In the case of `Nc1cc(S(=O)(=O)O)cc2cc(S(=O)(=O)O)c(N=Nc3ccc(-c4ccc(N=Nc5c(S(=O)(=O)O)cc6cc(S(=O)(=O)O)cc(N)c6c5O)cc4)cc3)c(O)c12`, the outcome is reported as “inactive; negative”.
With `C=CCOC(=O)CC(C)C` the outcome was “inactive; negative”.
For `COc1cc(-c2ccc(N=C=O)c(OC)c2)ccc1N=C=O`, the outcome was “active; positive”.
In the case of `NC(=O)c1ccccc1O`, the outcome is reported as “inactive; negative”.
`CCN(CC)c1ccc(C(=C2C=CC(=[N+](CC)CC)C=C2)c2ccc(S(=O)(=O)O)cc2S(=O)(=O)[O-])cc1` was tested, and the outcome was “active; positive”.
In the case of `CCc1c(Br)c(Br)c(Br)c(Br)c1Br`, the outcome is reported as “inactive; negative”.
In the case of `CCOc1ccc(NC(C)=O)cc1[N+](=O)[O-]`, the outcome is reported as “active; positive”.
`CN1CSC(=S)N(C)C1` was tested, and the outcome was “active; weakly positive”.
`CCOC(=O)C1=C[C@]2(CC)CCCN3CCc4c(n1c1ccccc41)[C@@H]32` was tested, and the outcome was “inactive; negative”.
`O=C1c2c(O)ccc([N+](=O)[O-])c2C(=O)c2c([N+](=O)[O-])ccc(O)c21` was tested, and the outcome was “active; positive”.
In the case of `ClC(Cl)C(Cl)Cl`, the outcome is reported as “inactive; negative”.
In the case of `Cc1cccc(Br)c1`, the outcome is reported as “inactive; negative”.
`CCNC(=O)Nc1ncc([N+](=O)[O-])s1` was tested, and the outcome was “active; positive”.
For `c1ccc2cc3ccccc3cc2c1`, the outcome was “active; weakly positive”.
`OCC(Br)CBr` (stereo not given) was tested, and the outcome was “active; positive”.
`C=C(Cl)CCl` was tested, and the outcome was “active; positive”.
In the case of `O.O.O.O.O.O.O=S(=O)([O-])[O-].[Ni+2]`, the outcome is reported as “inactive; negative”.
With `O=C(O)C(Cl)(Cl)Br` the outcome was “active; positive”.
For `c1ccc(Nc2ccc3ccccc3c2)cc1`, the outcome was “inactive; negative”.
For `CC(C)CCON=O`, the outcome was “active; positive”.
In the case of `CCN(CC)CCCC(C)Nc1c2ccc(Cl)cc2nc2ccc(OC)cc12` (stereo not given), the outcome is reported as “active; positive”.
For `Nc1ccccc1C(=O)OCC=Cc1ccccc1`, the outcome was “inactive; negative”.
In the case of `CCCCCCCCCCCCCCCCCCN`, the outcome is reported as “inactive; negative”.
In the case of `C=CC(=O)OCC`, the outcome is reported as “active; weakly positive”.
With `Nc1nc(=S)c2[nH]cnc2[nH]1` the outcome was “active; positive”.
For `O=[N+]([O-])c1cc([As](=O)(O)O)ccc1O`, the outcome was “inactive; negative”.
With `O=[N+]([O-])c1ccc(NCCO)c(OCCO)c1` the outcome was “active; positive”.
For `N#CCBr`, the outcome was “inactive; negative”.
With `Cc1ccc2ncccc2c1` the outcome was “active; positive”.
For `Cc1cc(O)c(C(C)(C)C)cc1Sc1cc(C(C)(C)C)c(O)cc1C`, the outcome was “inactive; negative”.
For `C=CC(=O)OCCOCCOC(=O)C=C`, the outcome was “inactive; negative”.
In the case of `Cc1cccc(N)c1C`, the outcome is reported as “active; positive”.
For `Oc1cc(Cl)c(Cl)c(Cl)c1`, the outcome was “inactive; negative”.
In the case of `Nc1cccc2c(N)cccc12`, the outcome is reported as “active; positive”.
With `CCN(CC)c1ccccc1` the outcome was “inactive; negative”.
For `Clc1ccc2ccccc2c1`, the outcome was “inactive; negative”.
In the case of `Nc1cccc(N)c1`, the outcome is reported as “active; positive”.
`c1cnc2c(c1)ccc1cccnc12` was tested, and the outcome was “inactive; negative”.
`BrC(Br)Br` was tested, and the outcome was “active; positive”.
With `CCCCCCCCCCCCOCC1CO1` (stereo not given) the outcome was “inactive; negative”.
`COP(=O)(O)O` was tested, and the outcome was “inactive; negative”.
In the case of `Nc1ccc(F)cc1F`, the outcome is reported as “active; positive”.
In the case of `C=C(C)/C([O-])=N/[N+](C)(C)CC(C)O` (stereo not given), the outcome is reported as “inactive; negative”.
With `Nc1ccc(Cl)c(N)c1` the outcome was “active; positive”.
In the case of `[O]=[W](=[O])=[O]`, the outcome is reported as “inactive; negative”.
`CC(C)(Cl)Cl` was tested, and the outcome was “inactive; negative”.
`C=C(C)c1ccccc1` was tested, and the outcome was “inactive; negative”.
For `C[C@@H]1[C@H](O)[C@@H](C)/C=C/C=C/C=C/C=C/C=C/C=C/C=C/[C@H](O[C@@H]2O[C@H](C)[C@@H](O)[C@H](N)[C@@H]2O)C[C@@H]2O[C@](O)(C[C@@H](O)C[C@@H](O)[C@H](O)CC[C@@H](O)C[C@@H](O)CC(=O)O[C@H]1C)C[C@H](O)[C@H]2C(=O)O`, the outcome was “inactive; negative”.
With `Brc1ccc(Oc2cc(Br)c(Br)cc2Br)c(Br)c1` the outcome was “inactive; negative”.
For `Cl/C=C/Cl`, the outcome was “inactive; negative”.
`COC(=O)Nc1nc2ccccc2[nH]1` was tested, and the outcome was “active; positive”.
With `NC1CCC(CC2CCC(N)CC2)CC1` (stereo not given) the outcome was “inactive; negative”.
`CCOCCOC(=O)C=Cc1ccc(OC)cc1` was tested, and the outcome was “inactive; negative”.
With `c1ccc2c(c1)c1cccc3ccc4cccc2c4c31` the outcome was “active; positive”.
In the case of `N#CC(Cl)(Cl)Cl`, the outcome is reported as “active; weakly positive”.
With `Oc1cccc(Cl)c1` the outcome was “inactive; negative”.
`CCCCOC(=O)COc1cc(Cl)c(Cl)cc1Cl` was tested, and the outcome was “inactive; negative”.
`CC(C)CC(C)N` (stereo not given) was tested, and the outcome was “inactive; negative”.
In the case of `C=CCc1ccc(OC)c(OC)c1`, the outcome is reported as “inactive; negative”.
In the case of `CCCC(=O)OCC`, the outcome is reported as “inactive; negative”.
`CC(=O)Nc1cccc(C)c1` was tested, and the outcome was “inactive; negative”.
With `CNC(=O)c1ccccc1` the outcome was “inactive; negative”.
In the case of `CCCCOC(=O)c1ccccc1N`, the outcome is reported as “inactive; negative”.
In the case of `O=C1OC(=O)c2c(Cl)c(Cl)c(Cl)c(Cl)c21`, the outcome is reported as “inactive; negative”.
With `FC(F)(F)c1cccc(Cl)c1` the outcome was “inactive; negative”.
For `O=C(O)CC(=O)O`, the outcome was “inactive; negative”.
`CCCCC(CC)COC(=O)c1ccc(C(=O)OCC(CC)CCCC)c(C(=O)OCC(CC)CCCC)c1` (stereo not given) was tested, and the outcome was “inactive; negative”.
With `NO` the outcome was “active; weakly positive”.
For `Cc1cc(-c2ccc(N=Nc3ccc4c(S(=O)(=O)O)cc(S(=O)(=O)O)c(N)c4c3O)c(C)c2)ccc1N=Nc1ccc2c(S(=O)(=O)O)cc(S(=O)(=O)O)c(N)c2c1O`, the outcome was “active; positive”.
`COc1ccc([N+](=O)[O-])cc1N=Nc1c(O)c(C(=O)Nc2cccc([N+](=O)[O-])c2)cc2ccccc12` was tested, and the outcome was “active; positive”.
In the case of `CC1CCCO1` (stereo not given), the outcome is reported as “inactive; negative”.
With `COC(=O)[C@H]1[C@H]2C[C@@H]3c4[nH]c5cc(OC)ccc5c4CCN3C[C@H]2C[C@@H](OC(=O)/C=C/c2cc(OC)c(OC)c(OC)c2)[C@@H]1OC` the outcome was “inactive; negative”.
For `Cc1cc(-c2cc(C)c(N)c(C)c2)cc(C)c1N`, the outcome was “inactive; negative”.
For `Nc1ccccc1C(=O)O`, the outcome was “inactive; negative”.
In the case of `c1ccc(N=NNc2ccccc2)cc1`, the outcome is reported as “active; positive”.
In the case of `Nc1c(Cl)c(Cl)nc(C(=O)O)c1Cl`, the outcome is reported as “inactive; negative”.
With `O=[N+]([O-])c1ccc(Nc2ccc(Nc3ccccc3)c(S(=O)(=O)O)c2)c([N+](=O)[O-])c1` the outcome was “active; positive”.
`O=c1c2ccccc2c(=O)c2c1ccc1c2[nH]c2c3c(=O)c4ccccc4c(=O)c3c3[nH]c4c(ccc5c(=O)c6ccccc6c(=O)c54)c3c12` was tested, and the outcome was “inactive; negative”.
With `COc1ccc(C2=N[C@H](c3ccc(Cl)cc3)[C@H](c3ccc(Cl)cc3)N2C(=O)N2CCNC(=O)C2)c(OC(C)C)c1` the outcome was “inactive; negative”.
For `c1ccc2c(c1)Nc1ccccc1S2`, the outcome was “inactive; negative”.
`Cc1cc(C)c(S(=O)(=O)O)cc1N=Nc1cc(S(=O)(=O)O)c2ccccc2c1O` was tested, and the outcome was “inactive; negative”.
With `O=[N+]([O-])c1cc(C(F)(F)F)cc([N+](=O)[O-])c1Cl` the outcome was “inactive; negative”.
In the case of `OCCCCO`, the outcome is reported as “inactive; negative”.
For `Nc1ccc([N+](=O)[O-])c(N)c1`, the outcome was “active; positive”.
With `S=[Se]` the outcome was “active; positive”.
`COC(=O)CCC(=O)OC` was tested, and the outcome was “inactive; negative”.
In the case of `COc1cc(/C=C/C(=O)CC(=O)/C=C/c2ccc(O)c(OC)c2)ccc1O`, the outcome is reported as “inactive; negative”.
With `CC1(C)C(=O)N(Cl)C(=O)N1Cl` the outcome was “inactive; negative”.
In the case of `NC(=O)c1ccccc1`, the outcome is reported as “inactive; negative”.
For `CC(=O)Nc1ccc(N=Nc2cc(C)ccc2O)cc1`, the outcome was “active; positive”.
`N#[N+]c1ccc2c(S(=O)(=O)[O-])cccc2c1O` was tested, and the outcome was “active; positive”.
In the case of `CCCCC(CC)COC(=O)c1ccc(N(C)C)cc1` (stereo not given), the outcome is reported as “inactive; negative”.
